Test results from article PMC3517478 (BMC Neurology, 2012).
Substitutions are numbered along the chain they refer to. “And” between values parts separate entries of the source, which are not always exact repeats. Identical values can stand only once.

Experiments:
[1] = biological target: T1, human α1-GlyR (WT) expressed in HEK 293 cells (Homo sapiens, UniProt P23415)
T1 sequence (P23415 29-457): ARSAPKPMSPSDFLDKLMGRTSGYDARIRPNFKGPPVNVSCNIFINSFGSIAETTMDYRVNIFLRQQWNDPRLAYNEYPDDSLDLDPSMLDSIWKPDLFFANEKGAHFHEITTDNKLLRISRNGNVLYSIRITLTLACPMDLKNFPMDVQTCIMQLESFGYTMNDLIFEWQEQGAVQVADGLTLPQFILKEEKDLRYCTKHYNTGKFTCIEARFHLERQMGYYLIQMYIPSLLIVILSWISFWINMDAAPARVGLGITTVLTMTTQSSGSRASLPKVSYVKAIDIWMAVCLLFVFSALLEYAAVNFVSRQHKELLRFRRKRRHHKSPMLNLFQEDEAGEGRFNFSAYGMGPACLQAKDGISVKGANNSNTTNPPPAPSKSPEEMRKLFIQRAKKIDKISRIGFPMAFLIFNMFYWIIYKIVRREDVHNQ
Text: (§1) Human α1-, α1R271Q-, α1R271L-, α1R271K and α1S267I-GlyR subunits were transiently transfected into human embryonic kidney cells (HEK 293, ATCC, Manassas, USA). The wild type α1-GlyR -cDNA was cloned in pCIS2 (Invitrogen, San Diego, USA) vector and provided by Prof. Heinrich Betz (Max-Planck-Institut für Hirnforschung, Frankfurt am Main, Germany). For the plasmid cDNA of the mutated α1R271Q-, α1R271L-, α1R271K- and α1S267I-GlyR the eukaryotic expression vector pcDNA1amp (Invitrogen, San Diego, USA), under the control of cytomegalovirus promoter, was used. For site-directed mutagenesis, single stranded template cDNA was synthesized from M13 origin of replication and the mutations of arginine residue (R) at position 271 to glutamine (R271Q), leucine (R271L) or lysine (R271K) and mutation of serine residue (S) at position 267 to isoleucine (S267I) were generated using standard procedures. […] Wild type and mutated α1-GlyR subunits efficiently form homomeric receptors in heterologous expression systems.
(§2) HEK 293 cells were cultured in medium containing HAMS’F-12 (Biochrom, Berlin, Germany), supplemented with 10% fetal bovine serum (FBS, Biochrom, Berlin, Germany), 100 U ml^–1 penicillin and 100μgml^–1 streptomycin (Gibco BRL, Life Technologies, Karlsruhe, Germany) at 37°C in a 5% CO2/ 95% air incubator. For transfection cells were suspended in a buffer containing 50mM K2HPO4 (Fluka BioChemika, Seelze, Germany), 20mMK-acetate (Sigma-Aldrich, Taufkirchen, Germany) and 25mM MgSO4 (Sigma-Aldrich, Taufkirchen, Germany) at pH 7.35. To visualize transfected cells, they were co-transfected with cDNA encoding for enhanced green fluorescent protein (EGFP) contained in the pEGFP-N1 expression vector (Clontech, Palo Alto, USA). The corresponding cDNA (5μg for the GlyR and 2.5μg for EGFP) was added to 400μl of the cell suspension and the mixture was rapidly transferred into the electroporation cuvette. For transfection we used an electroporation device by EquiBio (Kent, UK) and a 4mm aluminum electrode electroporation cuvette (Peqlab, Erlangen, Germany).
(§3) The phenol derivative 4-chloropropofol ([…]) was provided as pure substance by Prof. Paul M. O’Neill (University of Liverpool, England), prepared as light-protected 1M stock solution in ethanol (EtOH, J.T.Baker, Griesheim, Germany) and stored in glass vessels at −20°C.
(§4) Drug-containing vials were vigorously vortexed for 30min. Patch electrodes were filled with an intracellular solution of [mM] KCl 140, MgCl2 2, EGTA 11, HEPES 10, glucose 11, CaCl2 1 with pH 7.3, adjusted with 1 M KOH and a bath solution contained [mM] NaCl 162, KCl 5.31, NaHPO4 0.85, KH2PO4 0.22, HEPES 15, glucose 6.11, pH 7.4 adjusted with 1 M NaOH. Osmolarity of both solutions was set at 280–300 mOsmol.
(§5) Whole-cell experiments were performed at a holding potential of −30 mV with a mean seal resistance of 1 GΩ. […] A fast liquid filament switch technique was used for the application of the agonist, presented in pulses of 2 s duration every 20 s. The liquid filament switch technique is able to exchange the solution passing an outside-out patch or small whole-cells within 1–2 ms. We calculated flow rate of background solution through the chamber with 3,4 ml/min corresponding to 4% of maximal pump rate. With regard to the chamber volume of 100 μl the exchange solution time within the chamber was assessed to approximately […], dependent on cell size accordingly. Piezo-switch and small diameter capillary (ID 0.15 mm) within the measurement chamber promoted the millisecond solution exchange. […] The induced current (I) by this saturating control solution was defined as Icontrol. […] The stability of the seal was controlled during the complete experiment via control of the seal resistance. A variation of 10-20% of the basic value was regarded as tolerable.

[2] = biological target: T2, human α1R271Q-GlyR expressed in HEK 293 cells (Homo sapiens, UniProt P23415, R299Q); settings: R271Q
T2 sequence (P23415 29-457 R299Q): T1 sequence (P23415 29-457) with R271Q
Text: as §1, §2, §3, §4, §5

[3] = 10-90% of Imax, monoexponential fit

SMILES: NCC(=O)O [glycine]
- Current amplitude [% of mean WT current amplitude] ± SEM [1]: 100.0±26%
- nH ± SEM (Hill coefficient), glycine activation [1]: 0.8 and 0.8±0.7
- Rise time ± SEM [1, 3]: 3.7 ms and 3.7 ± 0.8 ms
- Mean current amplitude ± SEM ([1]; saturating glycine 1 mM): 1645±426 pA
- Current amplitude [% of mean WT current amplitude] ± SEM [2]: 7.5±15%
- nH ± SEM (Hill coefficient), glycine activation [2]: 1.0±0.6
- current peaks ([2]; 1 mM glycine): less than 50 pA
- activation by low glycine concentrations ([2]; 10-100 μM glycine): lacks activation
- Rise time ± SEM [2, 3]: 673 ± 224 ms
